Measured values from US12006294B2, “Therapeutic compounds” (REGENTS OF THE UNIVERSITY OF MINNESOTA, priority 2017, dated 2024).
Structures can show the parent of a compound that is named as a salt. Where two headings read alike, the source gives them in different places.

Key:
CAD5 cells = type: cell-based
Hela Cells = experiment: Cellular ER stress model (tunicamycin, WST-8 cell viability); settings: for AntiERStress (% Cell Survival): HeLa cells, tunicamycin 48 hours, WST-8; for viability at 2.5 µM: Homo sapiens, HeLa, 48 h
[1] = read-out: % Cell Survival Cmpd(2.5 μM) + Tuni, Hela cells, compound 2.5 μM + tunicamycin, WST-8 viability 48 hours after tunicamycin treatment
[2] = read-out: Compounds ERS (vs Tn), ERS activity vs Tuni = % cell survival (compound)/% cell survival (tunicamycin), compound 2.5 μM

| Structure (SMILES) | 1/Elispot (CAD5 cells) | AntiPrion (Number of Cells × 10^4) (CAD5 cells) | EliSpot (Spots/10000 Cells) (CAD5 cells) | Elispot (vs PC) (CAD5 cells) | AntiERStress (% Cell Survival) (Hela Cells) | viability at 2.5 µM (Hela Cells; [1]) | viability at 2.5 µM (Hela Cells; [2]) | viability at 2.5 µM (Hela Cells; read-out: % Cell Survival Cmpd(2.5 μM) + Tuni) | viability at 2.5 µM (Hela Cells; read-out: Compounds ERS (vs Tn)) |
| --- | --- | --- | --- | --- | --- | --- | --- | --- | --- |
| COc1cccc(Cl)c1/C=N/NC(=N)N [BC2-25-1, (E)-2-(2-chloro-6-methoxybenzylidene)hydrazinecarboximidamide acetate] | 1.08 | 20 × 10^4 | 1200 Spots/10000 Cells | 0.92 | 51.7 % Cell Survival | – | – | – | – |
| Cc1ccccc1/C=N/NC(=N)N [BC2-3-1, (E)-2-(2-methylbenzylidene)hydrazinecarboximidamide acetate] | 1.86 | 28 × 10^4 | 700 Spots/10000 Cells | 0.54 | 82.07 % Cell Survival | – | – | – | – |
| N=C(N)N/N=C/c1c(F)cccc1Cl [BC2-5-1, (E)-2-(2-chloro-6-fluorobenzylidene)hydrazinecarboximidamide acetate] | 1.63 | 34 × 10^4 | 800 Spots/10000 Cells | 0.62 | 104.9813 % Cell Survival | – | – | – | – |
| N=C(N)N/N=C/c1ccc(F)cc1Cl [BC2-17-1, (E)-2-(2-chloro-4-fluorobenzylidene)hydrazinecarboximidamide acetate] | 1.00 | 16 × 10^4 | 1300 Spots/10000 Cells | 1.00 | 104.8795 % Cell Survival | – | – | – | – |
| N=C(N)N/N=C\c1c(Cl)cc(O)cc1Cl [BC1-171-1] | 1.00 | 16 × 10^4 | 1300 Spots/10000 Cells | 1.00 | 52.54 % Cell Survival | – | – | – | – |
| N=C(N)N/N=C/c1ccccc1 [BC1-295-1, (E)-2-benzylidenehydrazinecarboximidamide acetate] | 2.17 | 37 × 10^4 | 600 Spots/10000 Cells | 0.46 | 60.58 % Cell Survival | – | – | – | – |
| N=C(N)N/N=C/c1c(N)cccc1Cl [BC2-61-1, (E)-2-(2-amino-6-chlorobenzylidene)hydrazinecarboximidamide] | 0.93 | 10 × 10^4 | 1400 Spots/10000 Cells | 1.08 | 86.56 % Cell Survival | – | – | – | – |
| C/C(=N\NC(=N)N)c1c(Cl)cccc1Cl [BC1-259-2, (E)-2-(1-(2,6-dichlorophenyl)ethylidene)hydrazinecarboximidamide] | 1.63 | 26 × 10^4 | 800 Spots/10000 Cells | 0.62 | 62.87 % Cell Survival | – | – | – | – |
| Clc1cc(Cl)cc(NC2=NCCN2)c1 [BC1-242-2, N-(3,5-dichlorophenyl)-4,5-dihydro-1H-imidazol-2-amine] | 1.86 | 50 × 10^4 | 700 Spots/10000 Cells | 0.54 | 57.56 % Cell Survival | – | – | – | – |
| N=C(N)N/N=C/c1ccccc1N [BC2-61-2, (E)-2-(2-aminobenzylidene)hydrazinecarboximidamide] | 1.63 | 50 × 10^4 | 800 Spots/10000 Cells | 0.62 | 58.21 % Cell Survival | – | – | – | – |
| N=C(N)Nc1c(Cl)cccc1Cl [BC1-256-2, 1-(2,6-dichlorophenyl)guanidine] | 1.44 | 32 × 10^4 | 900 Spots/10000 Cells | 0.69 | 54.77 % Cell Survival | – | – | – | – |
| Cl.NC(=O)N/N=C/c1c(Cl)cccc1Cl [BC1-262-1, (E)-2-(2,6-dichlorobenzylidene)hydrazinecarboxamide hydrochloride] | 1.86 | 53 × 10^4 | 700 Spots/10000 Cells | 0.54 | 64.7 % Cell Survival | – | – | – | – |
| N=C(N)N/N=C/c1ccc(Cl)cc1F [BC2-19-1, (E)-2-(4-chloro-2-fluorobenzylidene)hydrazinecarboximidamide acetate] | 0.72 | 5 × 10^4 | 1800 Spots/10000 Cells | 1.38 | 64.15 % Cell Survival | – | – | – | – |
| N=C(N)NCCc1c(Cl)cccc1Cl [BC1-252-2, 1-(2,6-dichlorophenethyl)guanidine] | 0.72 | 8 × 10^4 | 1800 Spots/10000 Cells | 1.38 | 49.49 % Cell Survival | – | – | – | – |
| N=C(N)N/N=C/c1c(O)cccc1Cl [BC2-59-1, (E)-2-(2-chloro-6-hydroxybenzylidene)hydrazinecarboximidamide acetate] | 0.93 | 15 × 10^4 | 1400 Spots/10000 Cells | 1.08 | 104.6895 % Cell Survival | – | – | – | – |
| N=C(N)N/N=C/c1cccc(Cl)c1 [BC2-9-1, (E)-2-(3-chlorobenzylidene)hydrazinecarboximidamide acetate] | 1.44 | 33 × 10^4 | 900 Spots/10000 Cells | 0.69 | 93.32 % Cell Survival | – | – | – | – |
| N=C(N)N/N=C/c1cccc(Cl)c1Cl [BC2-7-1, (E)-2-(2,3-dichlorobenzylidene)hydrazinecarboximidamide acetate] | 1.00 | 3 × 10^4 | 1300 Spots/10000 Cells | 1.00 | 100.0136 % Cell Survival | 66.7% | 160% | – | – |
| N=C(N)N/N=C/c1ccccc1F [BC2-11-1, (E)-2-(2-fluorobenzylidene)hydrazinecarboximidamide acetate] | 1.63 | 38 × 10^4 | 800 Spots/10000 Cells | 0.62 | 52.43 % Cell Survival | – | – | – | – |
| N=C(N)N/N=C/c1c(Cl)cc(O)cc1Cl [BC1-167-1, (E)-2-(2,6-dichloro-4-hydroxybenzylidene)hydrazinecarboximidamide acetate] | 0.87 | 9 × 10^4 | 1500 Spots/10000 Cells | 1.15 | 45.93 % Cell Survival | – | – | – | – |
| N=C(N)N/N=C/c1c(I)cccc1I [BC2-55-2, (E)-2-(2,6-diiodobenzylidene)hydrazinecarboximidamide] | 1.00 | 4 × 10^4 | 1300 Spots/10000 Cells | 1.00 | 70.69 % Cell Survival | – | – | – | – |
| N=C(N)N/N=C/c1c(Cl)ccc(Cl)c1Cl [BC1-282-1, (E)-2-(2,3,6-trichlorobenzylidene)hydrazinecarboximidamide acetate] | 0.76 | 10 × 10^4 | 1700 Spots/10000 Cells | 1.31 | 101.2576 % Cell Survival | 71.6% | 172% | – | – |
| CC/C(=N\NC(=N)N)c1cccc(Cl)c1 [JM1-257-2, (E)-2-(1-(3-chlorophenyl)propylidene)hydrazine-1-carboximidamide] | – | – | – | – | – | 34.6% | 50% | – | – |
| Clc1ccc(Cl)c(/C=N/NC2=NCCN2)c1Cl [JM3-151-2, (E)-2-(2-(2,3,6-trichlorobenzylidene)hydrazinyl)-4,5-dihydro-1H-imidazole hydrochloride] | – | – | – | – | – | 24.2% | 104% | – | – |
| Fc1cccc(F)c1/C=N/NC1=NCCN1 [JM2-103-2, (E)-2-(2-(2,6-difluorobenzylidene)hydrazinyl)-4,5-dihydro-1H-imidazole hydrochloride] | – | – | – | – | – | 48.7% | 105% | – | – |
| Clc1cccc(Cl)c1/C=N/NC1=NCCN1 [JM2-83-2, (E)-2-(2-(2,6-dichlorobenzylidene)hydrazinyl)-4,5-dihydro-1H-imidazole hydrochloride] | – | – | – | – | – | 53.8% | 125% | – | – |
| Clc1cccc(Cl)c1NC1=NCCN1 [JM2-97-2, N-(2,6-dichlorophenyl)-4,5-dihydro-1H-imidazol-2-amine hydrochloride] | – | – | – | – | – | – | – | 63.1% | 147% |
| Cc1cc(=O)nc(N/N=C/c2cccc(Cl)c2Cl)[nH]1 [JM3-199-2, (E)-2-(2-(2,3-dichlorobenzylidene)hydrazinyl)-6-methylpyrimidin-4(1H)-one] | – | – | – | – | – | 22.9% | 120% | – | – |
| Clc1cccc(CC2=NCCN2)c1Cl [JM3-179-2, 2-(2,3-dichlorobenzyl)-4,5-dihydro-1H-imidazole] | – | – | – | – | – | 20.4% | 88% | – | – |
| Cc1cc(=O)nc(N/N=C/c2ccc(Cl)c(Cl)c2)[nH]1 [JM3-211-2, (E)-2-(2-(3,4-dichlorobenzylidene)hydrazinyl)-6-methylpyrimidin-4(1H)-one] | – | – | – | – | – | 20.2% | 105% | – | – |
| NC(=S)N/N=C/c1c(F)cccc1Cl [JM1-113-2, (E)-2-(2-chloro-6-fluorobenzylidene)hydrazine-1-carbothioamide] | – | – | – | – | – | 27.6% | 40% | – | – |
